Consider twelve compounds from ChEMBL document CHEMBL5380874, “Transformation of a Dopamine D2 Receptor Agonist to Partial Agonists as Novel Antipsychotic Agents” (J Med Chem, 2023).

Data set [1] deals with T1, D(2) dopamine receptor (Homo sapiens, UniProt P14416). Kind of data set: Partial agonist activity at Dopamine D2 receptor (unknown origin) expressed in HEK293T coexpressing beta-arrestin-2 assessed as increase in cAMP accumulation incubated for 5 mins by beta-arrestin recruitment based BRET assay. The class given is functional, cell-based. The settings on record: for pEC50: read-out: EC50; for EC50: read-out: pEC50 (converted). Background: Cyclic AMP is a second messenger, typically raised through Gs and lowered through Gi signalling.
T1 sequence (P14416 whole entry): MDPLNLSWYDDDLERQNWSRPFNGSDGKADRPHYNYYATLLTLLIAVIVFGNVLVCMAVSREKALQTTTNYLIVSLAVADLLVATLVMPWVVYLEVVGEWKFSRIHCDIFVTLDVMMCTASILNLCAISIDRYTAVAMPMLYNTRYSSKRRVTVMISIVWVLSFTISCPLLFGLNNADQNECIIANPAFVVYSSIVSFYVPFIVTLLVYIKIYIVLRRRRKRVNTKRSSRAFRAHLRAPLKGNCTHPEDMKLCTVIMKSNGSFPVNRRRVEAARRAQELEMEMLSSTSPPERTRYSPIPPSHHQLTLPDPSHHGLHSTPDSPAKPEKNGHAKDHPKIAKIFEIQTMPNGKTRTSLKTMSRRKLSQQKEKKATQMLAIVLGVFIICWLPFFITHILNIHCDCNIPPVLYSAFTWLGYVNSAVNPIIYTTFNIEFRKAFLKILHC

Data set [2] concerns the target T1, D(2) dopamine receptor. As to the kind of experiment: Displacement of [3H]N-methylspiperone from Dopamine D2 receptor (unknown origin) expressed in HEK293T cell membrane incubated for 2 hrs by radioligand competitive binding based MicroBeta TriLux reader method. The class given is cell membranes. The settings on record: for pKi: read-out: Ki; for Ki: read-out: pKi (converted). (In general: Displacement assays read how much labelled ligand stays bound in the presence of the test substance.)

The target in data set [3] is T1, D(2) dopamine receptor. As to the kind of experiment: Partial agonist activity at Dopamine D2 receptor (unknown origin) expressed in HEK293T co-expressing G-alphai assessed as increase in cAMP accumulation incubated for 5 mins by BRET assay. The class given is functional, cell-based. The settings on record: for pEC50: read-out: EC50.
Data set [4] in a line: Drug concentration in C57BL/6J mouse brain at 5 mg/kg,ip measured at 0.5 hrs by LC-MS analysis. The class given is ADME, organism-based. Conditions: read-out: Ct; call rule not given here.
Data set [5] in a line: Ratio of drug concentration in brain to plasma in C57BL/6J mouse at 5 mg/kg,ip measured at 2 hrs by LC-MS analysis. It counts as ADME, organism-based. Conditions: read-out: BPR.
Data set [6] in a line: Drug concentration in C57BL/6J mouse brain at 5 mg/kg,ip measured at 2 hrs by LC-MS analysis. The class given is ADME, organism-based. Conditions: read-out: Ct.
Data set [7] in a line: Drug concentration in C57BL/6J mouse plasma at 5 mg/kg,ip measured at 0.5 hrs by LC-MS analysis. It counts as ADME, organism-based. Conditions: in vivo.
The nature of data set [8]: Ratio of drug concentration in brain to plasma in C57BL/6J mouse at 5 mg/kg,ip measured at 0.5 hrs by LC-MS analysis. The class given is ADME, organism-based. The settings on record: read-out: BPR.
Data set [9] is described as follows: Drug concentration in C57BL/6J mouse plasma at 5 mg/kg,ip measured at 2 hrs by LC-MS analysis. The class given is ADME, organism-based. Conditions: in vivo.
In data set [10] the target is D(1A) dopamine receptor (Homo sapiens, UniProt P21728). Kind of data set: Displacement of [3H]-SCH23390 from Dopamine D1 receptor (unknown origin) expressed in HEK293T cell membrane incubated for 2 hrs by radioligand competitive binding based MicroBeta TriLux reader method. The class given is cell membranes. Conditions: for pKi: read-out: Ki.
Sequence of D(1A) dopamine receptor (P21728 whole entry): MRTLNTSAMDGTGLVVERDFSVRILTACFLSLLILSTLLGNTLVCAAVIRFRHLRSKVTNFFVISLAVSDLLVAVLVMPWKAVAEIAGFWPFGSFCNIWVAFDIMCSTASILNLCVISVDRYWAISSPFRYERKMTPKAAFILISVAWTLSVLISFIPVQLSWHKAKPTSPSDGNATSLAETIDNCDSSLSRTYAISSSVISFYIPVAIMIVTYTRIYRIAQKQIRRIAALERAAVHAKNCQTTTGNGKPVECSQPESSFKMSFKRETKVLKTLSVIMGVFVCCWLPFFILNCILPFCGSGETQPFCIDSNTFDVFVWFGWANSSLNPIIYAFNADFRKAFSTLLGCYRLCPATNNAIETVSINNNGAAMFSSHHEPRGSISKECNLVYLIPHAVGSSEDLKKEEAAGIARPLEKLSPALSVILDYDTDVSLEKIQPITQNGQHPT
The target of data set [11] is D(1B) dopamine receptor (Homo sapiens, UniProt P21918). Kind of data set: Displacement of […] from Dopamine D5 receptor (unknown origin) expressed in HEK293T cell membrane incubated for 2 hrs by radioligand competitive binding based MicroBeta TriLux reader method. It counts as cell membranes. Conditions: for pKi: read-out: Ki.
Sequence of D(1B) dopamine receptor (P21918 whole entry): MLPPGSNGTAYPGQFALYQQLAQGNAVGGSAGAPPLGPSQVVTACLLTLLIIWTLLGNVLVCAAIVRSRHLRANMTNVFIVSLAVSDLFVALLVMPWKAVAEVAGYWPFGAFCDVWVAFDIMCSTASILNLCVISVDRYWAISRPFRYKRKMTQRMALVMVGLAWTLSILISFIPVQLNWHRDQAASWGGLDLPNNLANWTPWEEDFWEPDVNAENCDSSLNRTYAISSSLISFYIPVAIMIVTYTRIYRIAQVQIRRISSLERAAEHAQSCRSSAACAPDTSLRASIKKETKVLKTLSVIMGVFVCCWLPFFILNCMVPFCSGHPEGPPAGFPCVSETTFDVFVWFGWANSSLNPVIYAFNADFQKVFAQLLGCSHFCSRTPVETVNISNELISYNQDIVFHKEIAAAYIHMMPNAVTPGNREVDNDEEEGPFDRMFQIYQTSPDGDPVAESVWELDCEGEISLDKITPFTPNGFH
Data set [12] concerns the target T2, 5-hydroxytryptamine receptor 2C (Homo sapiens, UniProt P28335).
T2 sequence (P28335 whole entry): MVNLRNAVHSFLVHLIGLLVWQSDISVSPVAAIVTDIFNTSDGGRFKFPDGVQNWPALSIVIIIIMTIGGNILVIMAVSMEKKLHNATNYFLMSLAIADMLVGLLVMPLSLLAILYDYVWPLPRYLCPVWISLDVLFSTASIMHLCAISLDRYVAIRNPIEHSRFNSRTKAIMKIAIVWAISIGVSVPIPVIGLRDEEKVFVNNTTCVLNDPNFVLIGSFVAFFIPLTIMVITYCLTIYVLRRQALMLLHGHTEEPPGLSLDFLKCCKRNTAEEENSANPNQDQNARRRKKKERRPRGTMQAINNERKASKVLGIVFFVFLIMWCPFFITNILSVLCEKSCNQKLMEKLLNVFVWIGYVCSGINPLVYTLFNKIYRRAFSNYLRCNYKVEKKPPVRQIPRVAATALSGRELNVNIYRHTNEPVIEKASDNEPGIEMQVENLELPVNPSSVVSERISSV
Kind of data set: Displacement of [3H]-LSD from 5-HT2C receptor (unknown origin) expressed in HEK293T cell membrane incubated for 2 hrs by radioligand competitive binding based MicroBeta TriLux reader method. The class given is cell membranes. The settings on record: for pKi: read-out: Ki.

The nature of data set [13]: AUC (0-t) in Sprague-Dawley rat at 3 mg/kg,iv measured upto 24 hrs by LC-MS analysis. It counts as ADME, organism-based. Also noted: dose 3 mg/kg, time < 24 hrs, route iv. The settings on record: in vivo.
Data set [14] in a line: Half life in Sprague-Dawley rat at 10 mg/kg,po measured upto 24 hrs by LC-MS analysis. It counts as ADME, organism-based. Conditions: in vivo.
A short description of data set [15]: Cmax in Sprague-Dawley rat at 10 mg/kg,po measured upto 24 hrs by LC-MS analysis. It counts as ADME, organism-based. Also noted: time < 24 hrs, dose 10 mg/kg, route po. Conditions: in vivo.
The nature of data set [16]: Oral bioavailability in Sprague-Dawley rat at 10 mg/kg measured upto 24 hrs by LC-MS analysis. Conditions: in vivo. It counts as ADME, organism-based.
Data set [17] in a line: AUC (0-t) in Sprague-Dawley rat at 10 mg/kg,po measured upto 24 hrs by LC-MS analysis. The settings on record: in vivo. It counts as ADME, organism-based. Also noted: time < 24 hrs, dose 10 mg/kg, route po.
The nature of data set [18]: Tmax in Sprague-Dawley rat at 10 mg/kg,po measured upto 24 hrs by LC-MS analysis. It counts as ADME, organism-based. The settings on record: in vivo.
The nature of data set [19]: C0 in Sprague-Dawley rat at 3 mg/kg,iv measured upto 24 hrs by LC-MS analysis. The class given is ADME, organism-based. The settings on record: in vivo.
Data set [20] in a line: Clearance in Sprague-Dawley rat at 3 mg/kg,iv measured upto 24 hrs by LC-MS analysis. It counts as ADME, organism-based. The settings on record: in vivo.
Data set [21] is described as follows: AUC (0-infinity) in Sprague-Dawley rat at 10 mg/kg,po measured upto 24 hrs by LC-MS analysis. It counts as ADME, organism-based. On the set-up: dose 10 mg/kg, time < 24 hrs, route po. The settings on record: in vivo.
Data set [22] in a line: Half life in Sprague-Dawley rat at 3 mg/kg,iv measured upto 24 hrs by LC-MS analysis. The class given is ADME, organism-based. The settings on record: in vivo.
Data set [23] in a line: AUC (0-infinity) in Sprague-Dawley rat at 3 mg/kg,iv measured upto 24 hrs by LC-MS analysis. The class given is ADME, organism-based. Also noted: dose 3 mg/kg, time < 24 hrs, route iv. The settings on record: in vivo.

Usually pEC50 stands for the EC50 on a negative log10 scale, so that one unit is a factor of ten. Usually pKi stands for the Ki on a negative log10 scale, so that one unit is a factor of ten. By AUC(0-t) is commonly meant the area under the concentration-time curve up to a stated or last time point. Usually half-life stands for the time in which the quantity being followed falls by half. The low end stands for fast loss, the high end for slow loss. As a reminder, the Cmax is the peak of the concentration-time curve. A word on the bioavailability: it is the share of a dose that reaches the circulation, judged against a reference dose that is usually intravenous. The term Tmax denotes the time at which the peak concentration occurs. What is called clearance is a measure of how efficiently the substance is removed, as volume per time. Lower therefore signals inefficient removal. The term AUC(0-inf) denotes the area under the concentration-time curve extrapolated to infinity. Read a low AUC(0-inf) as less exposure.

pEC50, pKi: −log10 of the molar value.

Regarding `CCOc1cccc2cc(CNCCCCOc3ccc4oc(C)nc4c3)oc12`, in [1], the negative logarithm of the EC50 (pEC50) was 6.90 and the EC50 is 135 nM. Further, in data set [2], the pKi is 6.03 and the Ki is 955 nM. For the same compound, in data set [3], the negative logarithm of the EC50 (pEC50) is 5.57.

For `CCOc1cccc2c3c(oc12)CN(CCCCOc1ccc2ccc(=O)[nH]c2c1)CC3`, the EC50 entry in data set [3] (hek293t) is given as “Not Active”.

Take `CCOc1cccc2cc(CNCCCCCOc3ccc4c(c3)NC(=O)CC4)oc12`: in [1], the pEC50 was 7.35 and the EC50 is 45.7 nM. For the same compound, in data set [2], the pKi is 6.36 and the Ki was 447 nM. Further, in data set [3], the pEC50 was 6.02.

Regarding `CCOc1cccc2cc(C(C)NCC3(O)CCCCC3)oc12` (configuration not stated), in [2], the pKi is 5.67.

Consider `CCOc1cccc2cc(CNCC[C@H]3CC[C@H](NC(=O)N4CCCC4)CC3)oc12`, for which, in [1], the pEC50 is 8.21. In data set [2], the pKi is 7.17 and the Ki is 69.2 nM. Further, the pEC50 in [3] is 7.96.

On to `COc1cccc2c3c(oc12)CN(CCCCOc1ccc2cccnc2c1)CC3`, for which the pEC50 in [1] is 6.29; in data set [3], 5.65. In data set [2], the pKi is 5.87.

For the compound `CCOc1cccc2cc(CNCCCCOc3ccc4ccc(=O)[nH]c4c3)oc12`, the pEC50 is 9.66 in [1] and 9.89 in data set [3]. Moreover, the concentration at 0.5 h in data set [4] worked out at 48.3 ng/mL. For the same compound, the pKi in data set [2] was 9.92. The Ki in data set [2] is 0.129 nM. Moreover, the Kp at 2 h in [5] was found to be 0.109. Also, the concentration at 2 h in [6] was 5.76 ng/mL. Moreover, the Cp in data set [7] amounted to 792 ng/mL; in data set [9] it was 53.1 ng/mL. Further, in data set [3] (read-out: pEC50 (converted)), the EC50 is 0.123 nM. In addition, in data set [8], the Kp at 0.5 h worked out at 0.061.

In the case of `O=c1ccc2ccc(OCCCCNCc3cc4ccccc4o3)cc2[nH]1`, the pEC50 was 8.60 in data set [1] and 7.59 in data set [3]. Moreover, the pKi in data set [2] is 6.62.

For `CCOc1cccc2cc(CNCC[C@H]3CC[C@H](NC(=O)C4CC4)CC3)oc12`, the values for the negative logarithm of the EC50 (pEC50) in [1] and in [3] were 8.39 and 8.17, respectively. The pKi in data set [2] was 7.20.

On to `COc1cccc2c3c(oc12)CN(CCCCOc1ccc2c(c1)NC(=O)CC2)CC3`, for which, in data set [4], the concentration at 0.5 h came to 410 ng/mL. For the same compound, the Kp at 2 h in [5] was 0.439. For the same compound, the concentration at 2 h in data set [6] came to 332 ng/mL. Further, the Cp was found to be 540 ng/mL in [7] and 571 ng/mL in data set [9]. The pKi was 7.45 in [10], 6.80 in [11] and 6.21 in [12]. Further, the Ki was 36.3 nM in [10] (read-out: pKi (converted)) and 162 nM in [11] (read-out: pKi (converted)). Also, the Kp at 0.5 h in data set [8] came out at 0.759.

Consider `COc1cccc2c3c(oc12)CN(CCCCOc1ccc2ccc(=O)[nH]c2c1)CC3`, for which the AUC(0-t) at 24 h was found to be 2990 ng·h/mL in [13] and 8920 ng·h/mL in [17]. For the same compound, the half-life in data set [14] was 2.87 h; in [22] it was 3.48 h. Further, the Cmax in data set [15] worked out at 1560 ng/mL. This compound also returned a bioavailability in data set [16] of 88.8%. Besides, in [18], the Tmax was 0.5 h. For the same compound, in data set [19], the C0 at 24 h stood at 1330 ng/mL. Further, the negative logarithm of the Ki (pKi) in data set [10] is 6.72; in [11], 5.98; in data set [12], 6.26. Further, the pEC50 in data set [3] is 7.73. In data set [20], this compound gave a clearance of 16.7 mL/min/kg. In addition, the figures for the total exposure AUC(0-inf) in [21] and in data set [23] were 8940 ng·h/mL and 3010 ng·h/mL, respectively. In data set [12] (read-out: pKi (converted)), the Ki was 562 nM. This compound also had a Cp in data set [9] of 397 ng/mL.

In the case of `COc1cccc2cc(CNCCCOc3ccc4ccc(=O)[nH]c4c3)sc12`, the negative logarithm of the EC50 (pEC50) in data set [1] was 7.69; in data set [3], 6.57. Moreover, in data set [2], the pKi is 6.74.
